{"source": "patent US20190076440A1", "about": "“TREATMENT OF TISSUE DISORDERS” (priority 2016, published 2019)", "key": {"[1]": {"test_system": "MCDS mice (homozygous N617K collagen X mutation)", "test": "Tibial growth plate histology, immunohistochemistry, in situ hybridisation and TRAP staining in MCDS mice", "assay_type": "in vivo, mouse", "protocol": "(§1) FIG. 2 illustrates the effect of carbamazepine on the growth plate pathology associated with MCDS. 3 week old MCDS mice were treated with CBZ for a period of one week. Untreated MCDS mice and mice wild-type for collagen X (WT) were used as controls. (a) H+E staining of the tibial growth plate at 4 weeks of age. (b) Immunohistochemistry for Grp78 and (c) Immunohistochemistry for collagen X. Yellow bars show the hypertrophic zone. Scale bars equal to 100 μM in all cases. (d) is a table showing growth plate zone measurements at 4 weeks of age. Mean±SEM. Number of animals shown in brackets. Significance between mutant untreated mice and treated mice shown by the asterisk. (e) Western blots of rib growth plate cartilage at 4 weeks of age for Grp78, ATF4, p62/SQSTM1 and LC3-II alongside the associated coomassie blue stain used as a loading control. Quantification of these blots against the coomassie protein level is shown in supplementary S4. (f) X-ray images of the pelvis at 6 weeks of age. The angle between the lines was measured in a minimum of 5 animals and a graph showing the mean±SEM is shown in (g). Graphs showing the percentage increase in growth of the (h) tibia and (i) femur from 3 weeks of age.\nFIG. 3 illustrates the effect of carbamazepine on chondrocyte differentiation MCDS mice were treated with CBZ for 1 week. In situ hybridisation for a) collagen X mRNA levels b) Collagen II mRNA levels c) Osteopontin mRNA levels d) MMP13 mRNA levels. e) TRAP staining for osteoclast number, osteoclasts shown by the white asterisks. (f) Quantification of the number of osteoclasts per mm of vascular invasion front. Mean±SEM. (g) H+E image showing the terminal hypertrophic chondrocytes at the vascular invasion front. g) The height of the most terminal hypertrophic chondrocytes (within the red bracket) was measured, and mean±SEM is shown in (h). Hypertrophic zone marked by the yellow bar. Vascular invasion front shown by the orange line. Scale bar equal to 100 μM in all cases. Mean±SEM (*P<0.05 **P<0.005 ***P<0.0005).\nThe generation and genotyping of the Col10a1 p.N617K mouse line has been described previously (Rajpar et al 2009). Mice homozygous for the MCDS-causing N617K collagen X mutation were x-rayed at 3 weeks of age and treated with carbamazepine (250 mg/kg/day) for up to 21 days via a subcutaneous implantation of a slow-release pellet (Innovative research of America USA C-113) whilst the mouse was under anaesthetic. The incision was sutured closed, glued using Vetbond tissue adhesive (Santa-Cruz sc-361931) and the mice given an appropriate dose of buprenorphine painkiller depending on their body weight. Male mice were X-rayed once per week in order monitor bone growth; female mice were sacrificed after 1 week of treatment either by cervical dislocation or by carbon dioxide overdose under the provisions of the Animals (Scientific Procedures) Act 1986 and tissues collected for histological analysis. All procedures were carried out according to Home Office regulations.\nHind limbs were dissected and fixed overnight in ice-cold 4% paraformaldehyde (w/v) in 1×DEPC-PBS or 95% ethanol/5% acetic acid (v/v), and decalcified in 0.8 M ethyl-diamine tetracetic acid (EDTA) pH 7.4 for a period of one week. The samples were embedded in paraffin wax and sectioned sagittally using a cool-cut HM 355 S microtime (MicRom) generating 5 μm thick sections. Sections were collected on positively charged superfrost slides (VWR) and dried overnight prior to histological staining, immunohistochemistry or in situ hybridisation.\nH+E staining was performed as described previously ^10 and images taken using a Carl Zeiss Axiovision microscope fitted with an Axiocam colour CCD camera and associated Axiovision software.\nGrowth plate zone widths were measured on images of known magnification as described previously (Rajpar et al 2009). […]"}, "[2]": {"test_system": "MCDS mice (homozygous N617K collagen X mutation)", "test": "Western blots of rib growth plate cartilage of MCDS mice", "assay_type": "in vivo, mouse", "details": "1 week", "protocol": "as §1\nFIG. 8 illustrates the quantification of western blots on mouse rib growth plate tissue MCDS mice were treated with CBZ for a period of one week. Untreated MCDS mice and mice wild-type for collagen X (WT) were used as controls. Rib cages were dissected, treated with collagenase for 2 hours and cartilage growth plates were further dissected from each individual rib. Growth plates were pooled from 3 individual mice and protein extracted in SDS-PAGE buffer. 20 μg was used in SDS-PAGE and western blotting. Quantification of (a) BiP, (b) ATF4, (c) p62 and (d) LC3B protein levels against the coomassie protein level. Mean±SEM of three independent experiments;\nThe generation and genotyping of the Col10a1 p.N617K mouse line has been described previously (Rajpar et al 2009). Mice homozygous for the MCDS-causing N617K collagen X mutation were x-rayed at 3 weeks of age and treated with carbamazepine (250 mg/kg/day) for up to 21 days via a subcutaneous implantation of a slow-release pellet (Innovative research of America USA C-113) whilst the mouse was under anaesthetic. […]\nRib-cages from 4 week old mice were dissected and placed in collagenase medium for 1-2 hours, after which the cartilage growth plates were collected using a dissecting microscope. […] The supernatant was collected and analysed by SDS-PAGE.\nThe protein concentration of samples was determined using a Pierce bicinchoninic acid (BCA) protein assay with a bovine serum albumin standard curve. […]"}}, "data": [{"smiles": "NC(=O)N1c2ccccc2C=Cc2ccccc21", "note": "[CBZ, Carbamazepine]", "values": [{"measurement": "size of the hypertrophic zone", "setting": "[1]; 250 mg/kg body weight/day, 1 week, vs untreated MCDS controls", "result": "significant reduction"}, {"measurement": "BiP protein in growth plate sections (immunostaining)", "setting": "[1]; 1 week", "result": "reduced"}, {"measurement": "expression pattern of collagen X, collagen II, OPN and MMP13 (in situ hybridisation)", "setting": "[1]; CBZ for 1 week", "result": "altered the expression pattern of each of these markers towards that seen in the WT mouse"}, {"measurement": "hypertrophy, based on the height of the terminal hypertrophic chondrocytes", "setting": "[1]; CBZ for 1 week", "result": "enhanced"}, {"measurement": "osteoclast recruitment to the vascular invasion front (TRAP staining)", "setting": "[1]; CBZ for 1 week", "result": "partially restored"}, {"measurement": "level of extracellular collagen X (immunohistochemistry)", "setting": "[1]; tibial growth plate, 1 week", "result": "no overt increase"}, {"measurement": "level of intracellular collagen X (immunohistochemistry)", "setting": "[1]; tibial growth plate, 1 week", "result": "reduced"}, {"measurement": "concentration of the autophagy substrate p62 in growth plate extracts", "setting": "[2]; MCDS mice", "result": "decrease"}, {"measurement": "LC3B-II protein in growth plate extracts", "setting": "[2]; MCDS mice, autophagy marker", "result": "increase"}, {"measurement": "ATF4 level on western blots of growth plate extracts", "setting": "[2]; treated vs untreated MCDS mice", "result": "significantly reduced"}, {"measurement": "BiP level on western blots of growth plate extracts", "setting": "[2]; treated vs untreated MCDS mice", "result": "significantly reduced"}]}]}
